Measurements taken from patent US10213451B2, “Methods and compounds for modulating the secretion or expression of adhesion proteins or angiopoietins of cells” (PACIFIC ARROW LIMITED, priority 2004, dated 2019).

Tests used:
SKOV 3 = assay: MTT assay SKOV 3; type: cell-based; conditions: Homo sapiens, SK-OV-3; SKOV 3, Serous
Protocol: Majority of ovarian cancers arise from the surface epithelium of ovary, most of them belong to the histological subtypes of clear cell and serous carcinoma. We obtained 10 more human ovarian carcinoma cell-lines of these histological subtypes for these studies. The inhibition activity exerted by Xanifolia-Y was determined with MTT assay.

[1] = test system: ES2 (human ovarian cancer) cells transplanted sc; assay: Animal study, size of sc ES2 tumor; type: in vivo, Athymic Nu/Nu mice
Protocol: • Athymic Nu/Nu mice (2-3 months old) were transplanted sc with ES2 (human ovarian cancer) cells. • Five days after the transplant (day one), mice were divided into two groups (H and J) with two animals in each group. • Group H: On days 1-5, and 8-10 mice received daily drug administration of Xanifolia-Y, by i.p. route at dose of 2.5 mg/kg. • Group J mice received no drug-treatment.

OVCAR3 cells = assay: Apoptosis by flow cytometry of GFP-Annexin-V and propidium iodide; type: cell-based, human; conditions: 24 h after exposure
Protocol: Experiment of apoptosis of OVCAR3 cells after treatment with Xanifolia-Y was assessed with flow cytometry of GFP-Annexin-V and propidium iodide.

[2] = test system: Hey8A cells inoculated into peritoneal cavity; assay: Nodule formation in peritoneal cavity, Hey8A; type: in vivo, nu/nu mice; conditions: 0.25 mg/kg i.p. daily 5 days per week for two-three weeks
Source text: (§1) The relationship between the nodule formation and timelines during tumor progression are established. Usually, 4 to 6 nodules are formed during the entire period of tumor progression in this system (Lander Jr., et al., 2005). We start the drug-treatment at times equivalent to 20% and 50% of full tumor progression. At these times, the number of nodule is less and the size (weight) of the nodules is smaller. At the end of the drug-treatment, animals are euthanized and number of tumor nodules is determined and the tumor size (mass) is weighted.
(§2) Animals: 40 nu/nu mice are used per experiment.
(§3) 2 groups of mice (20 each) (i) Drug-treatment start at time equivalent to 20% of full tumor progression (or on 4 days after tumor inoculation) (ii) Drug-treatment starts at time equivalent to 50% of full tumor progression (or on 10 days after tumor inoculation). On the day of starting drug-treatment, half of the animals (10) will be scarified and the number and weight of nodules will measured.
(§4) Drug-Treatments: Animals are administered daily for 5 days per week for two—three weeks. Dose: 0.25 mg/kg, through i.p. route.

[3] = test system: ES2 cells inoculated into peritoneal cavity; assay: Nodule formation in peritoneal cavity, ES2; type: in vivo, nu/nu mice; conditions: ES2, 0.25 mg/kg i.p. daily 5 days per week for two-three weeks
Source text: as §1, §2, §3, §4

C/C=C(/C)C(=O)O[C@H]1[C@H](OC(=O)/C(C)=C\C)[C@@]2(CO)C(CC1(C)C)C1=CCC3[C@@]4(C)CC[C@H](O[C@@H]5OC(C(=O)O)[C@@H](O)C(O[C@@H]6O[C@@H](CO)C(O)C6O)C5O[C@@H]5OC(CO)[C@H](O)C(O)C5O)C(C)(C)C4CC[C@@]3(C)[C@]1(C)[C@@H](O)[C@H]2O (stereo partly drawn) [Xanifolia-Y, 3-O-[β-D-galactopyranosyl (1→2)]-α-L-arabinofuranosy (1→3)-β-D-glucuronopyranosyl-21,22-O-diangeloyl-3β, 15α, 16α, 21β, 22α, 28-hexahydroxyolean-12-ene]
IC50 (SKOV 3): 10.5 µM
tumor size smaller than in mice with no drug ([1]; 10 days period): 45%
tumor size ([1]; Group H: i.p. 2.5 mg/kg days 1-5 and 8-10, in 10 days): 10 mm
form of cell death induced (OVCAR3 cells): apoptosis is a major form of cell death
numbers of tumor nodules [2]: less
size of tumor [2]: smaller
numbers of tumor nodules [3]: less
size of tumor [3]: smaller
